Assay results published in paper PMC6435658, “Investigation into the Molecular Mechanisms underlying the Anti-proliferative and Anti-tumorigenesis activities of Diosmetin against HCT-116 Human Colorectal Cancer” (Scientific Reports, 2019).
In brackets after ≈: the same amount, converted by molar mass.

Legend:
CCD-841 cells = assay: MTT cytotoxicity assay, CCD-841 normal colon cells; format: cell-based; conditions: Homo sapiens, CCD-841 non cancerous cells
Description: Cytotoxicity property of Dis against HCT-116 and CCD-841 cells were measured by MTT assay as described by Mossman[77]. Briefly, cells were treated with different concentration of Dis and 5-Fu (positive control) with serial dilution factor of 2 for 8 concentrations in 96 well-plate for different time points (24 h, 48 h and 72 h). Subsequently at the end of each time point 20 µl of MTT (5 mg/ml, Affymetrix,Cleveland, OH, USA) were added to each well followed by 4 h incubation. The solutions were aspirated after 4 h and 100 µl of DMSO were added to each well. Absorbance for each well was read at 570 nm as measured by using microplate reader (Tecan Infinite multimode, Männedorf, Switzerland). Cytotoxicity (cell death) was measured by using the following formula: Celldeath(%)=sampleOD−controlOD/controlOD100
This assay was performed in triplicates in three independent experiments. The cytotoxicity property of Dis was presented as IC50 value.

HCT-116 cells [1] = assay: Annexin-V-FITC apoptosis assay; format: cell-based, human
Description: Inductions of early and late stages of apoptosis by Dis were investigated using Annexin-V-FITC assay according to the manufacturer’s instructions (BD Biosciences, San Jose, CA, USA). Briefly, 10^6 HCT-116 cells were seeded in 25 cm^2 flask followed by treatment with Dis for 24 h, 48 h and 72 h. Treated cells were harvested and washed twice with cold PBS and suspended in binding buffer followed by transferred of 10^5 cells to the 6 ml polystyrene round-bottom FACS tubes. Cells were incubated with 5 µl of PI and 5 µl of Annexin-V-FITC and introduced to the FACSCanto™II instrument (BD, San Jose, CA, USA).

caspase 8 = assay: Caspase-Glo 8 bioluminescent assay; format: cell-based, human; conditions: HCT-116, 24 h, 48 h, 72 h, time dependent
Description: (§1) To assess the effect of Dis on caspase cascades in treated cells, activities of caspase-Glo 3/7, caspase-Glo 8 and caspase-Glo 9 assays (Promega, Madison, WI, USA) were performed. Briefly, HCT-116 cells with the density of 10^4 cells/well were seeded in 96 well-plates. Cells were treated with Dis for 24 h, 48 h and 72 h. This assay was performed in triplicates for each time point. A total of 6 wells were preserved for samples without cells but with media and reagents as the blank samples, and for the untreated cells as negative control. At the end of incubation time, 100 µl caspase-glo mixture were added to each well and incubated for 1 h in the dark according to the manufacturer’s instructions. Optical density was measured via multimode microplate reader (Tecan Infinite, Männedorf, Switzerland).

caspase 9 = assay: Caspase-Glo 9 bioluminescent assay; format: cell-based, human; conditions: HCT-116, 24 h, 48 h, 72 h, time dependent
Description: as §1

HCT-116 cells [2] = assay: Multiple cytotoxicity assay (Cellomics multiparameter cytotoxicity 3 kit); format: cell-based, human; conditions: HCT-116, Dis 3.58 µg/ml
Description: Cellomics multiparameter cytotoxicity 3 kit (Thermo Scientific™, Pittsburgh, PA, USA) was used to investigate the vital apoptotic events in HCT-116 cells in the presence of Dis. Cytotoxicity 3 assay was used to provide information about the changes in nuclear morphology, cell membrane integrity, cytochrome C release and mitochondrial outer membrane permeabilization (MOMP). HCT-116 cells were seeded in 24 well-plate and covered by a cover slide followed by treatment with Dis for 24 h, 48 h and 72 h. Treated cells were stained with YoYo dye (life technology, CA, USA) and Mitotracker dye (life technology, CA, USA) followed by fixation and blocking procedures according to the manufacture’s protocol. Primary cytochrome C (Thermo Scientific™, Pittsburgh, PA, USA) antibody and secondary DyLight 650 (Thermo Scientific™, Pittsburgh, PA, USA) were added to each well and incubated for 1 h in the dark. Hoechst 33342 dye (Thermo Scientific™, Pittsburgh, PA, USA) was added in the last step to stain the nuclei of the cells. Cells were washed and cover slides were transferred on the slide and introduced to confocal Leica TCS SP5 II microscope (Leica Microsystems, Mannheim, Germany). Intensity of each dye was measured by using LAS X software.

MCF-10 = test system: MCF-10; design: method as in PMID 19424633, PMID 27176768, PMID 26847170, PMID 20183323; conditions: MCF-10 non-cancerous cells, 24 h; ref [10],[13],[15],[47]; cited from earlier work
MDA-MB 468 = test system: MDA-MB 468; design: method as in PMID 19424633, PMID 27176768, PMID 26847170, PMID 20183323; conditions: MDA-MB 468, 24 h treatment; ref [10],[13],[15],[47]; cited from earlier work

Structure (SMILES): COc1ccc(-c2cc(=O)c3c(O)cc(O)cc3o2)cc1O [Dis, Diosmetin]
- IC50 (CCD-841 cells; 24 h): 236 ± 9.99 µg/mL (≈ 788 µM)
- IC50 (CCD-841 cells; 48 h): 51.95 ± 0.11 µg/mL (≈ 173 µM)
- IC50 (CCD-841 cells; 72 h): 40.5 ± 9.99 µg/mL (≈ 135 µM)
- Late apoptosis (HCT-116 cells [1]; HCT-116, 24 h): 18 ± 3.6%
- Late apoptosis (HCT-116 cells [1]; HCT-116, 48 h): 26.3 ± 3.6%
- Late apoptosis (HCT-116 cells [1]; HCT-116, 72 h): 53.15 ± 4.35%
- population of cells in early apoptosis (HCT-116 cells [1]; HCT-116, 72 h of treatment): 7.7 ± 0%
- cleavage of caspase 8 (caspase 8): significantly increased
- cleavage of caspase 9 (caspase 9): significantly increased
- Cytochrome C release (HCT-116 cells [2]): releases of Cytochrome C from mitochondria to cytosol
- mitochondrial membrane potential (HCT-116 cells [2]; Mitotracker uptake): losses of the mitochondrial membrane potential
- cell permeability (HCT-116 cells [2]; YoYo dye): increases
- IC50 (MCF-10): 30 µg/mL (≈ 99.9 µM)
- IC50 (MDA-MB 468): 1.35 µg/mL (≈ 4.5 µM)
